The text below walks through data of article PMC9299640, “Incorporation of β‐Alanine in Cu(II) ATCUN Peptide Complexes Increases ROS Levels, DNA Cleavage and Antiproliferative Activity” (Chemistry (Weinheim an Der Bergstrasse, Germany), 2021).

Series [1] concerns NCI-H460 (non-small cell lung carcinoma). Description: Antiproliferative activity, sulforhodamine B (SRB) assay. Type of series: cell-based, human. The conditions noted are these: after treatment with 70 μM, 72 h. The method, then: (§1) The antiproliferative activity of selected Cu(II) ATCUN complexes was investigated towards different tumor cell lines (HCT116, NCI-H460, SiHa and SW480 cells) and expressed as the IC50 values.
(§2) Table S13. Accumulation of Cu in HCT116 cells after 24 h incubation with Cu-GGH, 1, 3, 4 and CuCl2 (70 µM) as determined by ICP-MS (n = 3), and cytotoxic activity in human cancer cell lines HCT116, NCI-H460, SiHa and SW480 expressed as the IC50 ± SD (in µM) as well as by the residual viable cells after treatment with 70 μM of the respective compound (%) as determined by the SRB assay (exposure time 72 h). accumulated Cu IC50 values […]
(§3) a – indicates no antiproliferative activity observed after treatment with the respective compound at 70 μM for 72 h.
(§4) S-12.1 Determination of IC50 values against HCT116, NCI-H460, SiHa and SW480 […]
(§5) HCT116, SW480 and NCI-H460 cells were supplied by ATCC, while SiHa cells were supplied by Dr. David Cowan, of the Ontario Cancer Institute, Canada. The cells were grown in α-MEM (Life Technologies) supplemented with 5% fetal calf serum (Moregate Biotech) at 37 °C in a humidified incubator with 5% CO2. […]
(§6) in 96-well plates and left to settle for 24 h. Compounds were added as water solutions to the plates in a series of 3-fold dilutions for 72 h before the assay was terminated by addition of 10% trichloroacetic acid (Merck Millipore) at 4 °C for 1 h. Cells were stained […]
(§7) with 0.4% sulforhodamine B (Sigma-Aldrich) in 1% acetic acid for 30 min in the dark at room temperature and then washed with 1% acetic acid to remove unbound dye. The stain was dissolved in unbuffered Tris base (10 mM, Serva) for 30 min on a plate shaker in the dark and quantified on a BioTek EL808 microplate reader at an absorbance of 490 nm with a reference wavelength of 450 nm to determine the percentage of cell-growth inhibition by determining the absorbance of each sample relative to a negative (no inhibitor) and a no-growth control (day 0). IC50 values were calculated with SigmaPlot 12.5 (Systat Software Inc.) using a three-parameter logistic sigmoidal dose−response curve between the calculated growth inhibition and the compound concentration. The presented IC50 values are the mean of at least three independent experiments, where 10 concentrations were tested in duplicate for each compound.
(§8) Ventures), by diluting with a matrix-matched solution with regard to HNO3 and Tm concentration, producing calibration standards with concentrations of 0.5, 1, 3, 5, 7, 10, […]
(§9) The measured Cu concentrations in the cell accumulation samples were in the range of 27–82 μg/L. The reported values are the means of at least three independent accumulation experiments conducted in triplicates with blank wells for each substance to account for unspecific binding of the Cu(II) complexes to the plastic of the well plates.
(§10) Accumulation values have been corrected by subtracting the average amount Cu determined in the cell-free wells.
(§11) Calibration curves for Cu were prepared with concentrations ranging from 0.5–100 µg/L. The limit of detection (LOD) was defined as 3 times the random error in the y-direction (Sy/x) of the calibration curve divided by the slope of the calibration curve. The limit of quantification (LOQ) was defined as 10 times the random error in the y-direction (Sy/x) of the calibration curve divided by the slope of the calibration curve.42 The LOD was determined for Cu as 1.8 μg/L and the LOQ was 5.95 μg/L.

Series [2] deals with HCT116 (colorectal carcinoma). The series is described as above. The conditions noted are these: after treatment with 70 μM, 72 h. Type of series: cell-based, human. As to the method:
as §1, §2, §3, §4, §5, §6, §7, §8, §9, §10, §11

The subject of series [3] is SiHa (cervical carcinoma). Described as above. Type of series: cell-based, human. The conditions noted are these: after treatment with 70 μM, 72 h. As to the method: as §1, §2, §3, §4, §5, §6, §7, §8, §9, §10, §11
Series [4] concerns SW480 (colon adenocarcinoma). The series is described as above. The format is cell-based, human. The conditions noted are these: after treatment with 70 μM, 72 h. As to the method: as §1, §2, §3, §4, §5, §6, §7, §8, §9, §10, §11
For series [5], the system named is Ehrlich ascites tumor cells. The conditions noted are these: cited from earlier work. An excerpt: Cowan et al. reported Cu(II) ATCUN complexes with anticancer, ‐viral, and ‐microbial activity as well as for DNA cleavage and enzyme inhibition.[3, 16, 17]
Series [6] relates to plasmid DNA pBR322. The settings on record: 50 μM complex (Cu(II):peptide 1:1.25), pBR322 0.2 μg, MOPS 50 mM pH 7.4, ascH− 1 mM, 1 h, 37 °C; at least three experiments.
Procedure: The influence of Gly2 and β‐Ala2 in the ATCUN motif of complexes 1–7 on the oxidative plasmid DNA cleavage activity was tested by means of gel electrophoresis. […] In Figure 3 the nuclease activity of in situ prepared 1–7, Cu−GGH and CuCl2 in the presence of ascH^− as reducing agent is shown (pH 7.4, 37 °C).
Figure 3 (Top) Nuclease activity towards plasmid DNA pBR322 (0.2 μg) of Cu(II) ATCUN complexes Cu−GGH, 1–7 (50 μM) and CuCl2 in MOPS buffer (50 mM, pH 7.4) in the presence of ascH^− (1 mM) after incubation for 1 h at 37 °C. Lane 1: DNA ladder (form I, II and III), lane 2: DNA reference, lanes 3–10 as indicated, lane 11: CuCl2. (Bottom) Visualization of the extent of DNA cleavage in percent. Error bars represent the standard deviation from at least three experiments.
A suitable concentration at which DNA forms II and III are visible, was determined to be 35 μM through a concentration‐dependent DNA cleavage experiment (S‐6.2, 0–50 μM).
All DNA cleavage experiments were
performed at least in triplicate in order to ensure reproducibility. The standard deviations
are represented as the error bars.
The in situ prepared complexes 1–7 (50 µM CuCl2 / 62.5 µM ligand, Cu(II):peptide = 1:1.25,
see S-4) and their corresponding ligands a–g (62.5 µM) were incubated with plasmid DNA […]
(form II), and linear (Form III) DNA were visualized by fluorescence imaging of […]
For series [7] the following is noted: pH 7.4, competitivity index (CI) method; cited from earlier work. As to the method:
Table 1 CI values calculated at pH 7.4 for Cu(II) complexes 1–7 of peptides a–g (1 mM Cu(II), peptides L and virtual competitive ligand Z) based on respective stability constants. […] The high stability of Cu−GGH (CI7.4=12.4)[14] and the novel Cu(II) Gly2−ATCUN complexes 1 and 2 (CI7.4 13.61 and […], Table 1) by formation of 5,5,6‐chelates is assumed to be res ...

Series [8] deals with HCT116 cells. The experiment in a line: Cellular uptake of Cu by ICP-MS. The conditions noted are these: HCT116, 70 μM, 24 h. Type of series: cell-based, human. As to the method:
We aimed to correlate the antiproliferative activity to the accumulation of Cu in HCT116 cells. Therefore, cells were treated for 24 h with complexes Cu−GGH, 1, 3, 4 and CuCl2 (70 μM), and the Cu content of the samples was determined by ICP‐MS (Table S13). […] The higher Cu contents probably lead to enhanced oxidative stress levels in cells, which consequently results in higher antiproliferative activity.
The antiproliferative activity of selected Cu(II) ATCUN complexes was investigated towards different tumor cell lines (HCT116, NCI-H460, SiHa and SW480 cells) and expressed as the IC50 values. Additionally, cellular uptake studies in HCT116 tumor cells were carried out and the amount of Cu was determined with inductively coupled plasma mass spectrometry (ICP-MS).
Table S13. […]
with 0.4% sulforhodamine B (Sigma-Aldrich) in 1% acetic acid for 30 min in the dark at room temperature and then washed with 1% acetic acid to remove unbound dye. The stain was dissolved in unbuffered Tris base (10 mM, Serva) for 30 min on a plate shaker in the dark and quantified on a BioTek EL808 microplate reader at an absorbance of 490 nm with a reference wavelength of 450 nm to determine the percentage of cell-growth inhibition by determining the absorbance of each sample relative to a negative (no inhibitor) and a no-growth control (day 0). […]

In the case of “NH2−Gly−Gly−His−COOH [Cu−GGH, reference compound]”, the “residual viable cells NCI-H460” value in series [1] stood at 74 ± 9%. Besides, in series [2], the “residual viable cells HCT116” value is reported as 66 ± 21%. In addition, the “residual viable cells SiHa” value in series [3] is “– (indicates no antiproliferative activity observed after treatment with the respective compound at 70 μM for 72 h)”. Moreover, the “residual viable cells SW480” value in series [4] is 73 ± 17%. Besides, the “antitumor effect in vivo (in words)” value in series [5] is “killed Ehrlich ascites tumor cells in vivo”. Further, the “extent of DNA cleavage, form II” value in series [6] is listed as about 90%. Also, the “log K 7.4 / CI7.4 of Cu(II) complex” value in series [7] is on record as 12.4. In addition, in series [8], the “cellular uptake (accumulated Cu content), approximate values” was about 0.3 μg Cu/4×10^5 cells.
